From patent publication US20250122191A1, “COMPOUNDS AS BCL-2 INHIBITORS” (Fochon Biosciences, Ltd, priority 2021, published 2025)

Legend:
[1] = system: RS4;11-BCL-2 D103Y cells; test: Cell proliferation assay (MTS), RS4;11-BCL-2 D103Y engineered cells; type: cell-based; conditions: Homo sapiens, 72 h, read-out: RS4, 11 BCL2-D103Y IC50
Excerpt: MTS testing kit was purchased from Promega (Madison, WI, USA). The RPMI-1640, Fetal bovine serum and Penicillin-Streptomycin were purchased from BI (Biological Industries, Beit Haemek, Israel). Puromycin was purchased from Beyotime (shanghai, China). Dimethyl sulfoxide (DMSO) was purchased from Sigma (St. Louis., MO, USA). RS4;11-BCL-2 G101V (Cobioer Lot. #: CBD2021063013P4), RS4;11-BCL-2 D103E (Cobioer Lot. #: CBD2021063013P4), RS4;11-BCL-2 D103Y (Cobioer Lot. #: CBD2022012101P4) and RS4;11-BCL-2 F104L (Cobioer Lot. #: CBD2021063014P4) cells were cultured in RPMI1640 supplemented with 1 ug/mL puromycin, 100 U/mL Penicillin-Streptomycin and 10% FBS.
To investigate whether a compound is able to inhibit the activity of BCL-2 mutation in cells, a mechanism-based assay using engineered cell lines stably overexpressing BCL-2 mutation (RS4;11-BCL-2 G101V, RS4;11-BCL-2 D103E, RS4;11-BCL-2 D103Y, and RS4;11-BCL-2 F104L) was developed. In this assay, the inhibition of BCL-2 mutation was reflected by the inhibition of cell proliferation of engineered RS4;11 cells. Cells were plated into 96-well plates at optimized cell density (RS4;11-BCL-2 G101V: 5000 cells/well; RS4;11-BCL-2 D103E: 7500 cells/well; RS4;11-BCL-2 D103Y: 7500 cells/well; RS4;11-BCL-2 F104L: 5000 cells/well). Plates were incubated at 37° C., with 5% CO2 for 4 h (RS4;11-BCL-2 G101V, RS4;11-BCL-2 F104L) and 24 h (RS4;11-BCL-2 D103E, RS4;11-BCL-2 D103Y), respectively. Compounds were serially diluted and added to the plates with the final concentrations of 10000, 3333.3, 1111.1, 370.4, 123.5, 41.2, 13.7, 4.6 and 1.5 nM. Plates were incubated at 37° C., with 5% CO2 for 120 h (RS4; 11-BCL-2 G101V, RS4; 11-BCL-2 F104L) and 72 h (RS4;11-BCL-2 D103E, RS4;11-BCL-2 D103Y), respectively. 20 μl MTS was added into each well and the plates were incubated at 37° C., with 5% CO2 exactly for 2 h. The absorbance was measured by a microplate reader at 490 nm. IC50 values were calculated using GraphPad Prism 8.0 software.

[2] = system: RS4;11-BCL-2 G101V cells; test: Cell proliferation assay (MTS), RS4;11-BCL-2 G101V engineered cells; type: cell-based; conditions: Homo sapiens, 120 h, read-out: RS4, 11 BCL2-G101V IC50
Summary of the method: (§1)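 Inhibition of mutant BCL-2 is inferred from reduced proliferation of RS4;11 cells stably overexpressing the mutant. Compounds are tested at 1.5–10000 nM for 120 h (G101V, F104L) or 72 h (D103E, D103Y), with MTS absorbance at 490 nm used to derive IC50.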

[3] = system: RS4;11-BCL-2 D103E cells; test: Cell proliferation assay (MTS), RS4;11-BCL-2 D103E engineered cells; type: cell-based; conditions: Homo sapiens, 72 h, read-out: RS4, 11 BCL2-D103E IC50
Summary of the method: as §1

[4] = system: Toledo cells; test: Cell proliferation assay (MTS), Toledo cells; type: cell-based; conditions: Homo sapiens, 72 h
Summary of the method: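 Toledo cells (RPMI-1640, 10% FBS) seeded at 30000 cells/well, rested 4 h, then exposed 72 h at 37 °C, 5% CO2 to compound at nine final concentrations, 1.5–10000 nM. Viability by MTS (2 h), absorbance at 490 nm. IC50 from the concentration-response.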

[5] = system: RS4;11-BCL-2 F104L cells; test: Cell proliferation assay (MTS), RS4;11-BCL-2 F104L engineered cells; type: cell-based; conditions: Homo sapiens, 120 h, read-out: RS4, 11 BCL2-F104L IC50
Summary of the method: as §1

[6] = Pharmacokinetics assay in rats; type: in vivo; conditions: rat, male Sprague-Dawley rats, po, 5 mg/kg, plasma
Protocol: The purpose of this study was to determine the pharmacokinetics of Examples in male Sprague-Dawley rats (Supplied by Beijing Vital River Laboratory Animal Technology Co., Ltd.) following a single intravenous bolus injection at 1 mg/kg and oral gavage (PO) administration at 5 mg/kg.
Animals in Group 1 were administered with Examples by single intravenous bolus injection at 1 mg/kg, which was formulated in 10% DMSO (Sigma, Batch #LPCOS181): 60% PEG400 (Sigma, Batch #MKCH6281): 30% water, pH 5-6 at 1 mg/mL as a solution. Animals in Group 2 were administered with Examples by single oral gavage (PO) administration at 5 mg/kg, which was formulated in 10% DMSO (Sigma, Batch #BCCD6641): 60% PEG400 (Sigma, Batch #MKCL4921): 30% water at 1 mg/mL as a solution. Blood samples were collected at 0.083, 0.25, 0.5, 1, 2, 4, 8, 12 and 24 hours post-dose. Concentrations of Examples in plasma were determined by LC/MS/MS (LC: Waters UPLC; MS: Triple Quad 6500 plus).

Row | IC50 [1] [nM] | IC50 [2] [nM] | IC50 [3] [nM] | SMILES | IC50 [4] [nM] | IC50 [5] [nM] | AUC(0-t) [6] [ng·h/mL] | half-life [6] [h] | Cmax ([6]; read-out: Cmax/C0) [ng/mL]
1 | 1 | 1 |  | COc1cc(CN2CCN(C3CC4(CCN(c5ccc(C(=O)NS(=O)(=O)c6cnc(NC[C@H]7CC[C@](C)(O)CC7)c([N+](=O)[O-])c6)c(Oc6cc7c(F)c[nH]c7nc6OC)c5)CC4)C3)[C@H](c3ccccc3C(C)C)C2)cc(O)n1 [Example 69, 2-((3-fluoro-6-methoxy-1H-pyrrolo[2,3-b]pyridin-5-yl)oxy)-N-((6-((((1r,4r)-4-hydroxy-4-methylcyclohexyl)methyl)amino)-5-nitropyridin-3-yl)sulfonyl)-4-(2-((R)-4-((2-hydroxy-6-methoxypyridin-4-yl)methyl)-2-(2-isopropylphenyl)piperazin-1-yl)-7-azaspiro[3.5]nonan-7-yl)benzamide] |  |  |  |  | 
2 | 5 | 1 | 1 | COc1ccc(CN2CCN(C3CC4(CCN(c5ccc(C(=O)NS(=O)(=O)c6cnc(NC[C@H]7CC[C@](C)(O)CC7)c([N+](=O)[O-])c6)c(Oc6cnc7[nH]cc(F)c7c6)c5)CC4)C3)[C@H](c3ccccc3C(C)C)C2)cc1OC [Example 74, 4-(2-((R)-4-(3,4-dimethoxybenzyl)-2-(2-isopropylphenyl)piperazin-1-yl)-7-azaspiro[3.5]nonan-7-yl)-2-((3-fluoro-1H-pyrrolo[2,3-b]pyridin-5-yl)oxy)-N-((6-((((1r,4r)-4-hydroxy-4-methylcyclohexyl)methyl)amino)-5-nitropyridin-3-yl)sulfonyl)benzamide] | 1 |  |  |  | 
3 | 8 |  | 1 | COc1nc2[nH]cc(F)c2cc1Oc1cc(N2CCC3(CC2)CC(N2CCN(Cc4ccnc5c4CCO5)C[C@H]2c2ccccc2C(C)C)C3)ccc1C(=O)NS(=O)(=O)c1cnc(NC[C@H]2CC[C@](C)(O)CC2)c([N+](=O)[O-])c1 [Example 190, 4-(2-((R)-4-((2,3-dihydrofuro[2,3-b]pyridin-4-yl)methyl)-2-(2-isopropylphenyl)piperazin-1-yl)-7-azaspiro[3.5]nonan-7-yl)-2-((3-fluoro-6-methoxy-1H-pyrrolo[2,3-b]pyridin-5-yl)oxy)-N-((6-((((1r,4r)-4-hydroxy-4-methylcyclohexyl)methyl)amino)-5-nitropyridin-3-yl)sulfonyl)benzamide] |  |  |  |  | 
4 | 1 |  | 1 | COc1nc2[nH]cc(F)c2cc1Oc1cc(N2CCC3(CC2)CC(N2CCN(Cc4ccnc5c4NCCO5)C[C@H]2c2ccccc2C(C)C)C3)ccc1C(=O)NS(=O)(=O)c1cnc(NC[C@H]2CC[C@](C)(O)CC2)c([N+](=O)[O-])c1 [Example 192, 4-(2-((R)-4-((2,3-dihydro-1H-pyrido[2,3-b][1,4]oxazin-8-yl)methyl)-2-(2-isopropylphenyl)piperazin-1-yl)-7-azaspiro[3.5]nonan-7-yl)-2-((3-fluoro-6-methoxy-1H-pyrrolo[2,3-b]pyridin-5-yl)oxy)-N-((6-((((1r,4r)-4-hydroxy-4-methylcyclohexyl)methyl)amino)-5-nitropyridin-3-yl)sulfonyl)benzamide] |  |  |  |  | 
5 | 8 |  |  | COc1nc2[nH]cc(F)c2cc1Oc1cc(N2CCC3(CC2)CC(N2CCN(Cc4ccnc5c4NCC(C)O5)C[C@H]2c2ccccc2C(C)C)C3)ccc1C(=O)NS(=O)(=O)c1cnc(NC[C@H]2CC[C@](C)(O)CC2)c([N+](=O)[O-])c1 (stereo partly drawn) [Example 195, 2-((3-fluoro-6-methoxy-1H-pyrrolo[2,3-b]pyridin-5-yl)oxy)-N-((6-((((1r,4r)-4-hydroxy-4-methylcyclohexyl)methyl)amino)-5-nitropyridin-3-yl)sulfonyl)-4-(2-((2R)-2-(2-isopropylphenyl)-4-((3-methyl-2,3-dihydro-1H-pyrido[2,3-b][1,4]oxazin-8-yl)methyl)piperazin-1-yl)-7-azaspiro[3.5]nonan-7-yl)benzamide] |  |  |  |  | 
6 | 8 | 1 |  | COc1nc2[nH]cc(F)c2cc1Oc1cc(N2CCC3(CC2)CC(N2CCN(Cc4ccncc4)C[C@H]2c2ccccc2C(C)C)C3)ccc1C(=O)NS(=O)(=O)c1cnc(NC[C@H]2CC[C@](C)(O)CC2)c([N+](=O)[O-])c1 [Example 239, 2-((3-fluoro-6-methoxy-1H-pyrrolo[2,3-b]pyridin-5-yl)oxy)-N-((6-((((1r,4r)-4-hydroxy-4-methylcyclohexyl)methyl)amino)-5-nitropyridin-3-yl)sulfonyl)-4-(2-((R)-2-(2-isopropylphenyl)-4-(pyridin-4-ylmethyl)piperazin-1-yl)-7-azaspiro[3.5]nonan-7-yl)benzamide] | 1 | 1 |  |  | 
7 | 5 | 1 | 1 | COc1cc(CN2CCN(C3CC4(CCN(c5ccc(C(=O)NS(=O)(=O)c6cnc(NC[C@H]7CC[C@](C)(O)CC7)c([N+](=O)[O-])c6)c(Oc6cc7c(F)c[nH]c7nc6OC)c5)CC4)C3)[C@H](c3ccccc3C(C)C)C2)ncc1C1CC1 [Example 249, 4-(2-((R)-4-((5-cyclopropyl-4-methoxypyridin-2-yl)methyl)-2-(2-isopropylphenyl)piperazin-1-yl)-7-azaspiro[3.5]nonan-7-yl)-2-((3-fluoro-6-methoxy-1H-pyrrolo[2,3-b]pyridin-5-yl)oxy)-N-((6-((((1r,4r)-4-hydroxy-4-methylcyclohexyl)methyl)amino)-5-nitropyridin-3-yl)sulfonyl)benzamide] |  |  |  |  | 

Row | SMILES | IC50 [1] [nM] | IC50 [2] [nM] | IC50 [3] [nM] | IC50 [4] [nM] | IC50 [5] [nM] | AUC(0-t) [6] [ng·h/mL] | half-life [6] [h] | Cmax ([6]; read-out: Cmax/C0) [ng/mL]
8 | COc1nc2[nH]cc(F)c2cc1Oc1cc(N2CCC3(CC2)CC(N2CCN(Cc4ccc(C5CC5)c(OC)n4)C[C@H]2c2ccccc2C(C)C)C3)ccc1C(=O)NS(=O)(=O)c1cnc(NC[C@H]2CC[C@](C)(O)CC2)c([N+](=O)[O-])c1 [Example 289, 4-(2-((R)-4-((5-cyclopropyl-6-methoxypyridin-2-yl)methyl)-2-(2-isopropylphenyl)piperazin-1-yl)-7-azaspiro[3.5]nonan-7-yl)-2-((3-fluoro-6-methoxy-1H-pyrrolo[2,3-b]pyridin-5-yl)oxy)-N-((6-((((1r,4r)-4-hydroxy-4-methylcyclohexyl)methyl)amino)-5-nitropyridin-3-yl)sulfonyl)benzamide] |  | 2 | 1 | 1 | 1 | 3450 | 8.1 | 357
